This passage reports EC50 results from patent publication US20240166652A1, “MODULATORS OF THE INTEGRATED STRESS PATHWAY” (Calico Life Sciences LLC, priority 2017, published 2024).

For orientation: EC50 means the concentration that produces a half-maximal response.

For this experiment, the system named is ATF4 luciferase reporter in HEK293T cells. Kind of experiment: ATF4-Luc assay (ATF4 luciferase reporter, tunicamycin-treated HEK293T cells). The experiment is classed as cell-based, human. The conditions noted are these: Homo sapiens, HEK-293T; HEK293T cells carrying the ATF4 luciferase reporter, 1 μg/mL tunicamycin, 7 hours. (A reporter such as luciferase makes a cellular process visible.)
Consider `O=C(COc1ccc(Cl)c(Cl)c1)NC12CCC(NC(=O)COc3cc(F)c4cn[nH]c4c3)(C1)C2` [Compound 195, 2-(3,4-dichlorophenoxy)-N-(4-{2-[(4-fluoro-1H-indazol-6-yl)oxy]acetamido}-bicyclo[2.1.1]hexan-1-yl)acetamide], for which the EC50 lay within 10 to 50 nM. Regarding `O=C(COc1ccc(C(F)(F)F)nc1)NC12CCC(NC(=O)COc3ccc(Cl)c(Cl)c3)(C1)C2` [Compound 196, 2-(3,4-dichlorophenoxy)-N-[4-(2-{[6-(trifluoromethyl)pyridin-3-yl]oxy}acetamido)bicyclo[2.1.1]hexan-1-yl]acetamide], the EC50 was in the range of 10 to 50 nM.

Regarding `CN(C(=O)COc1ccc(Cl)c(Cl)c1)C12CC(NC(=O)COc3ccc(F)c(Cl)c3)(C1)C2` [Compound 197, N-{3-[2-(3-chloro-4-fluorophenoxy)acetamido]bicyclo[1.1.1]pentan-1-yl}-2-(3,4-dichlorophenoxy)-N-methylacetamide], the EC50 lay in the range of 50 to 250 nM. As for `CN(C(=O)COc1ccc(Cl)c(Cl)c1)C12CC(NC(=O)COc3ccc(Cl)c(Cl)c3)(C1)C2` [Compound 198, 2-(3,4-dichlorophenoxy)-N-{3-[2-(3,4-dichlorophenoxy)acetamido]-bicyclo[1.1.1]pentan-1-yl}-N-methylacetamide], the EC50 was in the range of 50 to 250 nM.

Take `CN(C(=O)COc1ccc(Cl)c(Cl)c1)C12CC(NC(=O)COc3ccc(Cl)cc3)(C1)C2` [Compound 199, N-{3-[2-(4-chlorophenoxy)acetamido]bicyclo[1.1.1]pentan-1-yl}-2-(3,4-dichlorophenoxy)-N-methylacetamide]: the EC50 lay within 50 to 250 nM. Regarding `CN(CC(=O)NC12CC(NC(=O)COc3ccc(Cl)c(Cl)c3)(C1)C2)c1ccc(Cl)cc1` [Compound 200, N^2-(4-chlorophenyl)-N-{3-[2-(3,4-dichlorophenoxy)acetamido]-bicyclo[1.1.1]pentan-1-yl}-N^2-methylglycinamide], the EC50 was above 2000 nM. The result for `CN(CC(=O)NC12CC(NC(=O)COc3ccc(Cl)c(F)c3)(C1)C2)c1ccc(Cl)cc1` [Compound 201, N-{3-[2-(4-chloro-3-fluorophenoxy)acetamido]bicyclo[1.1.1]pentan-1-yl}-N^2-(4-chlorophenyl)-N^2-methylglycinamide] reads 500 to 2000 nM; that for `CN(CC(=O)NC12CCC(NC(=O)COc3ccc(Cl)c(Cl)c3)(C1)C2)c1ccc(Cl)cc1` [Compound 202, N^2-(4-chlorophenyl)-N-{4-[2-(3,4-dichlorophenoxy)acetamido]-bicyclo[2.1.1]hexan-1-yl}-N^2-methylglycinamide], above 2000 nM; that for `O=C(CNc1ccc(Cl)cc1)NC12CC(NC(=O)COc3ccc(Cl)c(F)c3)(C1)C2` [Compound 203, N-{3-[2-(4-chloro-3-fluorophenoxy)acetamido]bicyclo[1.1.1]pentan-1-yl}-N^2-(4-chlorophenyl)glycinamide], 50 to 250 nM. `CN(CC(=O)NC12CC(NC(=O)COc3ccc(Cl)c(F)c3)(C1)C2)C(=O)c1ccc(Cl)cc1` [Compound 204, 4-chloro-N-[2-({3-[2-(4-chloro-3-fluorophenoxy)acetamido]-bicyclo[1.1.1]pentan-1-yl}amino)-2-oxoethyl]-N-methylbenzamide]: the EC50 was in the range of 500 to 2000 nM. Consider `CC(=O)N(CC(=O)NC12CC(NC(=O)COc3ccc(Cl)c(F)c3)(C1)C2)c1ccc(Cl)cc1` [Compound 205, M-acetyl-N-{3-[2-(4-chloro-3-fluorophenoxy)acetamido]bicyclo-[1.1.1]pentan-1-yl}-N^2-(4-chlorophenyl)glycinamide], for which the EC50 is above 2000 nM. Turning to `Cc1ccc(OCC(=O)NC23CC(NC(=O)COc4ccc(Cl)c(F)c4)(C2)C3)cn1` [Compound 206, 2-(4-chloro-3-fluorophenoxy)-N-(3-{2-[(6-methylpyridin-3-yl)oxy]acetamido}bicyclo[1.1.1]pentan-1-yl)acetamide], the EC50 was in the range of 50 to 250 nM.

For the compound `O=C(COCc1ccccc1)NC12CC(NC(=O)COc3ccc(Cl)c(F)c3)(C1)C2` [Compound 207, 2-(benzyloxy)-N-{3-[2-(4-chloro-3-fluorophenoxy)acetamido]-bicyclo[1.1.1]pentan-1-yl}acetamide], the EC50 fell in the range of 50 to 250 nM. With `O=C(COCc1ccccc1)NC12CC(NC(=O)COc3ccc(Cl)cc3)(C1)C2` [Compound 208, 2-(benzyloxy)-N-{3-[2-(4-chlorophenoxy)acetamido]bicyclo[1.1.1]pentan-1-yl}acetamide], the EC50 is 50 to 250 nM. The result for `O=C(COc1ccc(Cl)c(Cl)c1)NC12CCCC(NC(=O)COc3ccc(Cl)c(Cl)c3)(C1)C2` [Compound 209] reads above 2000 nM; that for `Cc1ccc(CC(=O)NC23CC(NC(=O)COc4ccc(Cl)c(F)c4)(C2)C3)cn1` [Compound 210, 2-(4-chloro-3-fluorophenoxy)-N-{3-[2-(6-methylpyridin-3-yl)acetamido]bicyclo[1.1.1]pentan-1-yl}acetamide], above 2000 nM. `O=C(COCc1ccc(C(=O)O)cc1)NC12CC(NC(=O)COc3ccc(Cl)c(F)c3)(C1)C2` [Compound 211]: the EC50 was above 2000 nM. Consider `O=C(COCc1cccc(C(=O)O)c1)NC12CC(NC(=O)COc3ccc(Cl)c(F)c3)(C1)C2` [Compound 212, 3-{[2-({3-[2-(4-chloro-3-fluorophenoxy)acetamido]bicyclo[1.1.1]pentan-1-yl}amino)-2-oxoethoxy]methyl}benzoic Acid], for which the EC50 was above 2000 nM. Take `O=C(COc1ccc(Cl)c(F)c1)NC12CC(NC(=O)COc3ccc(Cl)cn3)(C1)C2` [Compound 213, 2-(4-chloro-3-fluorophenoxy)-N-(3-{2-[(5-chloropyridin-2-yl)oxy]acetamido}bicyclo[1.1.1]pentan-1-yl)acetamide]: the EC50 is 50 to 250 nM. On to `O=C(COc1ccc(Cl)c(F)c1)NC12CC(NC(=O)COc3ccc(C(F)(F)F)cn3)(C1)C2` [Compound 214, 2-(4-chloro-3-fluorophenoxy)-N-[3-(2-{[5-(trifluoromethyl)pyridin-2-yl]oxy}acetamido)bicyclo[1.1.1]pentan-1-yl]acetamide], for which the EC50 lay within 50 to 250 nM.

Consider `N#Cc1ccc(OCC(=O)NC23CC(NC(=O)COc4ccc(Cl)c(F)c4)(C2)C3)nc1` [Compound 215, 2-(4-chloro-3-fluorophenoxy)-N-(3-{2-[(5-cyanopyridin-2-yl)oxy]acetamido}bicyclo[1.1.1]pentan-1-yl)acetamide], for which the EC50 lay in the range of 50 to 250 nM. The result for `Cc1cc(OCC(=O)NC23CC(NC(=O)COc4ccc(Cl)c(F)c4)(C2)C3)ncc1Cl` [Compound 216, 2-(4-chloro-3-fluorophenoxy)-N-(3-{2-[(5-chloro-4-methylpyridin-2-yl)oxy]acetamido}bicyclo[1.1.1]pentan-1-yl)acetamide] reads 50 to 250 nM. `O=C(COCc1n[nH]c(=O)o1)NC12CC(NC(=O)COc3ccc(Cl)c(F)c3)(C1)C2` [Compound 218, 2-(4-chloro-3-fluorophenoxy)-N-(3-{2-[(5-oxo-4,5-dihydro-1,3,4-oxadiazol-2-yl)methoxy]acetamido}bicyclo[1.1.1]pentan-1-yl)acetamide]: the EC50 is 500 to 2000 nM. The result for `O=C(COc1ccc(S(F)(F)(F)(F)F)cc1)NC12CC(NC(=O)COc3ccc(Cl)c(F)c3)(C1)C2` [Compound 219, 2-(4-chloro-3-fluorophenoxy)-N-(3-{2-[4-(pentafluoro-λ^6-sulfanyl)phenoxy]acetamido}bicyclo[1.1.1]pentan-1-yl)acetamide] reads below 10 nM; that for `Cc1cc(OCC(=O)NC23CC(NC(=O)COc4ccc(Cl)c(F)c4)(C2)C3)cc(C)n1` [Compound 220, 2-(4-chloro-3-fluorophenoxy)-N-(3-{2-[(2,6-dimethylpyridin-4-yl)oxy]acetamido}bicyclo[1.1.1]pentan-1-yl)acetamide], 500 to 2000 nM. With `CC(C)(C)c1ccc(OCC(=O)NC23CC(NC(=O)COc4ccc(Cl)c(F)c4)(C2)C3)cn1` [Compound 221, 2-[(6-tert-butylpyridin-3-yl)oxy]-N-{3-[2-(4-chloro-3-fluorophenoxy)acetamido]bicyclo[1.1.1]pentan-1-yl}acetamide], the EC50 was in the range of 500 to 2000 nM.

With `O=C(COc1ccc(Cl)c(F)c1)NC12CC(NC(=O)COc3cnc(C(F)(F)F)c(Cl)c3)(C1)C2` [Compound 222, 2-(4-chloro-3-fluorophenoxy)-N-[3-(2-{[5-chloro-6-(trifluoromethyl)pyridin-3-yl]oxy}acetamido)bicyclo[1.1.1]pentan-1-yl]acetamide], the EC50 was below 10 nM. Consider `COC(=O)c1cc(OCC(=O)NC23CC(NC(=O)COc4ccc(Cl)c(F)c4)(C2)C3)ccc1Cl` [Compound 223, methyl 2-chloro-5-[2-({3-[2-(4-chloro-3-fluorophenoxy)acetamido]-bicyclo[1.1.1]pentan-1-yl}amino)-2-oxoethoxy]benzoate], for which the EC50 fell in the range of 500 to 2000 nM. On to `O=C(COc1ccc(Cl)c(F)c1)NC12CC(NC(=O)COc3ccc(Cl)c(CO)c3)(C1)C2` [Compound 224, 2-(4-chloro-3-fluorophenoxy)-N-(3-{2-[4-chloro-3-(hydroxymethyl)phenoxy]-acetamido}bicyclo[1.1.1]pentan-1-yl)acetamide], for which the EC50 was in the range of 50 to 250 nM. On to `O=C(COc1ccc(Cl)nc1)NC12CC(NC(=O)COc3ccc(Cl)c(F)c3)(C1)C2` [Compound 225, 2-(4-chloro-3-fluorophenoxy)-N-(3-{2-[(6-chloropyridin-3-yl)oxy]acetamido}bicyclo[1.1.1]pentan-1-yl)acetamide], for which the EC50 is 10 to 50 nM. Consider `Cc1cc(OCC(=O)NC23CC(NC(=O)COc4ccc(Cl)c(F)c4)(C2)C3)cnc1Cl` [Compound 226, 2-(4-chloro-3-fluorophenoxy)-N-(3-{2-[(6-chloro-5-methylpyridin-3-yl)oxy]acetamido}bicyclo[1.1.1]pentan-1-yl)acetamide], for which the EC50 is 10 to 50 nM.

Turning to `O=C(COc1ccc(Cl)c(F)c1)NC12CC(NC(=O)COc3cnc(Cl)c(F)c3)(C1)C2` [Compound 227, 2-(4-chloro-3-fluorophenoxy)-N-(3-{2-[(6-chloro-5-fluoropyridin-3-yl)oxy]acetamido}bicyclo[1.1.1]pentan-1-yl)acetamide], the 50% effective concentration (EC50) was below 10 nM.
